This passage reports EC50 results from patent publication US20240287022A1 (Merck Sharp & Dohme LLC, priority 2021, published 2024).

The target in this assay is recombinant IL4I1 (Homo sapiens (Human), UniProt Q96RQ9). In words: IL4I1 Enzymatic Assay (Amplex Red/HRP coupled H2O2 detection). It is filed as biochemical. The note with it: 1 nM IL4I1, 1 mM each Phe/Tyr/Trp, four-hour pre-incubation, 120 minutes reaction, top compound concentration of 10000 nM. In a few lines: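 Recombinant IL4I1 (1 nM final) was pre-incubated 4 h at ambient temperature with compound in 50 mM Hepes pH 7.0, 0.005% Tween20. Reaction ran 120 min with 1 mM each Phe/Tyr/Trp, 0.05 mM Amplex Red and 1 U/mL HRP. Resorufin fluorescence (544/590 nm) was read, and EC50 fitted from ten-point 1:3 titrations (top 10000 nM) by four-parameter regression.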
recombinant IL4I1, sequence (Q96RQ9 22-567): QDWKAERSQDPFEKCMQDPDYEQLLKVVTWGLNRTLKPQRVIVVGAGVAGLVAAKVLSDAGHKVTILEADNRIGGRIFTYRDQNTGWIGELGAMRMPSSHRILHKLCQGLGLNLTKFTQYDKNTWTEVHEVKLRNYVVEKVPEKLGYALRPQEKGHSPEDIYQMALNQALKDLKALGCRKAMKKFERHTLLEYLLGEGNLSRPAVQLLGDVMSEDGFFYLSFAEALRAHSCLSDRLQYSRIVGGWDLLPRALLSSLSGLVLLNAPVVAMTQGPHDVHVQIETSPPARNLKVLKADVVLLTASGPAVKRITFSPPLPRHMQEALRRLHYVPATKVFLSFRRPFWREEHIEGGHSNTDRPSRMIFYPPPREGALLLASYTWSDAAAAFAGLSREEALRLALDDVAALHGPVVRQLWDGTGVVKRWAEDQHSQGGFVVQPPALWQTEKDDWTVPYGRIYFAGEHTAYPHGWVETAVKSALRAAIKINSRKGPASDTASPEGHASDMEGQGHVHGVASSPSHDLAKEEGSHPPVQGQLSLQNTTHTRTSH
`CC1(c2ccc(Cc3cc4ccccc4[nH]c3=O)cc2)CNC1` [Example 79, 3-(4-(3-methylazetidin-3-yl)benzyl)quinolin-2(1H)-one]: the EC50 stood at 11.5 nM.
Then `O=c1[nH]c2c(CO)cccc2cc1Cc1cccc(OC(F)(F)F)c1` [Example 177, 8-(hydroxymethyl)-3-(3-(trifluoromethoxy)benzyl)quinolin-2(1H)-one], with 1910 nM; and `NCc1cccc2cc(Cc3cccc(OC(F)(F)F)c3)c(=O)[nH]c12` [Example 178, 8-(aminomethyl)-3-(3-(trifluoromethoxy)benzyl)quinolin-2(1H)-one], with 99 nM.
As for `Cc1noc(C)c1Cc1nnc(Cc2cc3ccccc3[nH]c2=O)o1` [Example 24, 3-((5-((3,5-dimethylisoxazol-4-yl)methyl)-1,3,4-oxadiazol-2-yl)methyl)quinolin-2(1H)-one], the figure is 194 nM; as for `O=C1COc2ccc(Cc3cc4ccccc4[nH]c3=O)cc2N1` [Example 155, 6-((2-oxo-1,2-dihydroquinolin-3-yl)methyl)-2H-benzo[b][1,4]oxazin-3(4H)-one], 2 nM; as for `O=c1[nH]c2ccccc2cc1Cc1nnc(-c2c(F)cccc2F)o1` [Example 3, 3-((5-(2,6-difluorophenyl)-1,3,4-oxadiazol-2-yl)methyl)quinolin-2(1H)-one], 2 nM.
As for `O=C1NCCc2ccc(Cc3cc4ccccc4[nH]c3=O)cc21` [Example 77], the figure is 4.7 nM.
With `O=c1[nH]c2ccccc2cc1Cc1nnc(-c2scnc2Cl)o1` [Example 38, 3-((5-(4-chlorothiazol-5-yl)-1,3,4-oxadiazol-2-yl)methyl)quinolin-2(1H)-one], the EC50 came out at 25.2 nM.
For `Cn1c(=O)c(Cc2cccc(OC(F)(F)F)c2)cc2ccccc21` [Example 144, 1-methyl-3-(3-(trifluoromethoxy)benzyl)quinolin-2(1H)-one], the EC50 worked out at 7.2 nM.
Then `O=c1[nH]c2ccccc2cc1Cc1ccc2scnc2c1` [Example 156, 3-(benzo[d]thiazol-5-ylmethyl)quinolin-2(1H)-one], with 1.4 nM; and `O=c1[nH]c2ccccc2cc1Cc1ccc(C2COCC2O)cc1` (stereo not drawn) [Example 182, 3-(4-(4-hydroxytetrahydrofuran-3-yl)benzyl)quinolin-2(1H)-one], with 7.3 nM.
In the case of `CC(C)(O)c1ccc(Cc2cc3cnccc3[nH]c2=O)cc1Cl` [Example 184, 3-(3-Chloro-4-(2-hydroxypropan-2-yl)benzyl)-1,6-naphthyridin-2(1H)-one], the EC50 is 15.3 nM.
As for `O=c1[nH]c2cccnc2cc1Cc1cccc(OC(F)(F)F)c1` [Example 105, 3-(3-(trifluoromethoxy)benzyl)-1,5-naphthyridin-2(1H)-one], the figure is 619 nM; as for `COc1ccc2[nH]c(=O)c(Cc3ccccc3)cc2c1` [Example 172, 3-benzyl-6-methoxyquinolin-2(1H)-one], 532 nM; as for `O=c1[nH]c2ccccc2cc1Cc1nnc(Cc2cnccn2)o1` [Example 31, 3-((5-(pyrazin-2-ylmethyl)-1,3,4-oxadiazol-2-yl)methyl)quinolin-2(1H)-one], 172 nM.
As for `Cc1onc(-c2nnc(Cc3cc4ccccc4[nH]c3=O)o2)c1C` [Example 14, 3-((5-(4,5-dimethylisoxazol-3-yl)-1,3,4-oxadiazol-2-yl)methyl)quinolin-2(1H)-one], the figure is 150 nM; as for `CN1C(=O)COc2ccc(Cc3cc4ccccc4[nH]c3=O)cc21` [Example 169, 4-Methyl-6-((2-oxo-1,2-dihydroquinolin-3-yl)methyl)-2H-benzo[b][1,4]oxazin-3(4H)-one], 2.3 nM.
As for `O=c1[nH]c2ccccc2cc1Cc1ccc(N2CCCS2(=O)=O)nc1` [Example 46, 3-((6-(1,1-dioxidoisothiazolidin-2-yl)pyridin-3-yl)methyl)quinolin-2(1H)-one], the figure is 5.9 nM.
For the compound `CC1CN(c2ccc(Cc3cc4cnccc4[nH]c3=O)cc2)C(=O)O1` (single isomer, unassigned) [Example 189, (S or R)-5-methyl-3-(4-((2-oxo-1,2-dihydro-1,6-naphthyridin-3-yl)methyl)phenyl)oxazolidin-2-one], the half-maximal effective concentration (EC50) was 16.7 nM.
Then `O=C1OC(CO)CN1c1ccc(Cc2cc3ccccc3[nH]c2=O)cn1` (racemic) [Example 49, rac-5-(hydroxymethyl)-3-(5-((2-oxo-1,2-dihydroquinolin-3-yl)methyl)pyridin-2-yl)oxazolidin-2-one], with 15.6 nM; and `O=c1[nH]c2ccccc2cc1Cc1nnc(C2CCC2)o1` [Example 32, 3-((5-cyclobutyl-1,3,4-oxadiazol-2-yl)methyl)quinolin-2(1H)-one], with 168 nM.
As for `O=c1[nH]c2ccccc2cc1Cc1nnc(-c2c[nH]c(C3CC3)n2)o1` [Example 18, 3-((5-(2-cyclopropyl-1H-imidazol-4-yl)-1,3,4-oxadiazol-2-yl)methyl)quinolin-2(1H)-one], the figure is 23.4 nM.
As for `O=c1[nH]c2ccccc2cc1Cc1ccc2c(c1)CCNC2` [Example 129, 3-((1,2,3,4-tetrahydroisoquinolin-6-yl)methyl)quinolin-2(1H)-one], the figure is 13.6 nM.
As for `CC(=O)NCc1ccc(Cc2cc3ccccc3[nH]c2=O)c(Cl)c1` [compound 67, N-(3-chloro-4-((2-oxo-1,2-dihydroquinolin-3-yl)-methyl)benzyl)acetamide], the EC50 is 15.6 nM.
As for `CS(=O)(=O)Nc1ccc(Cc2cc3ccccc3[nH]c2=O)cn1` [Example 48, N-(5-((2-oxo-1,2-dihydroquinolin-3-yl)methyl)pyridin-2-yl)methanesulfonamide], the figure is 21.4 nM; as for `CC1(Nc2ccc(Cc3cc4ccccc4[nH]c3=O)cc2)CNC1` [Example 58, 3-(4-((3-methylazetidin-3-yl)amino)benzyl)quinolin-2(1H)-one], 9.8 nM.
As for `O=c1[nH]c2ccccc2cc1Cc1nnc(C2CCCCC2)o1` [Example 9, 3-((5-cyclohexyl-1,3,4-oxadiazol-2-yl)methyl)quinolin-2(1H)-one], the figure is 51.1 nM; as for `CC(=O)Nc1ccc(Cc2cc3ccccc3[nH]c2=O)cn1` [Example 150, N-(5-((2-oxo-1,2-dihydroquinolin-3-yl)methyl)pyridin-2-yl)acetamide], 16.9 nM.
Take `O=c1[nH]c2ccccc2cc1Cc1cc(F)c2c(c1)CNC2` [Example 69, 3-((7-fluoroisoindolin-5-yl)methyl)quinolin-2(1H)-one]: the EC50 was found to be 10.6 nM.
Consider `O=c1[nH]c2ccncc2cc1Cc1cccc(OC(F)(F)F)c1` [Example 117, 3-(3-(trifluoromethoxy)benzyl)-1,6-naphthyridin-2(1H)-one], for which the EC50 was 2.1 nM.
As for `O=c1[nH]c2ccccc2cc1Cc1ccc2occc(=O)c2c1` [Example 130, 3-((4-oxo-4H-chromen-6-yl)methyl)quinolin-2(1H)-one], the figure is 1.8 nM.
Then `O=c1[nH]c2ccccc2cc1Cc1nnc(-c2cn[nH]c2)o1` [Example 6, 3-((5-(1H-pyrazol-4-yl)-1,3,4-oxadiazol-2-yl)methyl)quinolin-2(1H)-one], with 2.8 nM; and `O=c1[nH]c2cnccc2cc1Cc1cccc(OC(F)(F)F)c1` [Example 103, 3-(3-(trifluoromethoxy)benzyl)-1,7-naphthyridin-2(1H)-one], with 466 nM.
